# From patent publication US11524963B2, “Substituted pyrazolo[3,4-d]pyrimidines as RET kinase inhibitors” (Array Biopharma Inc., priority 2018, dated 2022)
# Counter-ions that a name gives are not always drawn.
# Columns and labels:
# Type in all cases: biochemical
# [1] = target: RET kinase G810S (Homo sapiens, UniProt P07949, G810S); experiment: RET Enzyme Assay (HTRF KinEASE-TK), G810S
# [2] = target: RET kinase M918T (Homo sapiens, UniProt P07949, M918T); experiment: RET Enzyme Assay (HTRF KinEASE-TK), M918T
# RET kinase M918T, sequence (P07949 29-1114 M918T): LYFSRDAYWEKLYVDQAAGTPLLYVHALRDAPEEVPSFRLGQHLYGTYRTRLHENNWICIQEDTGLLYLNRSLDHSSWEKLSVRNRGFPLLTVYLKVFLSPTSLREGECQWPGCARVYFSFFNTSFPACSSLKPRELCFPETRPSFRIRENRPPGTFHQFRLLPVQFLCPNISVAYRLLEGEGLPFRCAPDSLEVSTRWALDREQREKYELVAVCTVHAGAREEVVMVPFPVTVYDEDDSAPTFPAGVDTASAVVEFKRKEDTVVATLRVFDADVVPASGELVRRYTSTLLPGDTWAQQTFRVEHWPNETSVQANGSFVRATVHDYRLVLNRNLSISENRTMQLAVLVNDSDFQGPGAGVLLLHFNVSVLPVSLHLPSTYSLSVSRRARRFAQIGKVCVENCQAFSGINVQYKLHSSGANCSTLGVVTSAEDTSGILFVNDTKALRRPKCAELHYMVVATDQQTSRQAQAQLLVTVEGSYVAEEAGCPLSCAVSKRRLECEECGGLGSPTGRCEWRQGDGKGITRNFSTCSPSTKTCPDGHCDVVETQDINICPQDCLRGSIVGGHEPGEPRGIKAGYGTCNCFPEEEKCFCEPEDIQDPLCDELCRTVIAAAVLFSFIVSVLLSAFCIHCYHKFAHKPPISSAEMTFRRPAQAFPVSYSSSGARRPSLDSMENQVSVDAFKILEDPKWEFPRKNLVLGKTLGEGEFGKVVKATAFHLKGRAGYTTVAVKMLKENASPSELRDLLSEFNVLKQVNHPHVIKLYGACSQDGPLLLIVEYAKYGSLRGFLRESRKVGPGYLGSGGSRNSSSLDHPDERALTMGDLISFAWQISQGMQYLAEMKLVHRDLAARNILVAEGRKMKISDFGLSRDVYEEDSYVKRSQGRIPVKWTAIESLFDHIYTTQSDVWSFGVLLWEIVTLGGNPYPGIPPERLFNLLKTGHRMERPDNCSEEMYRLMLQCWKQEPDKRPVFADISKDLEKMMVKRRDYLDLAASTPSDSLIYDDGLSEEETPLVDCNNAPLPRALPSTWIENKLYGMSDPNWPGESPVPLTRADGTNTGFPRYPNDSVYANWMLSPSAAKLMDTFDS
# [3] = target: RET kinase G810R (Homo sapiens, UniProt P07949, G810R); experiment: RET Enzyme Assay (HTRF KinEASE-TK), G810R
# RET kinase G810R, sequence (P07949 29-1114 G810R): as the sequence (P07949 29-1114 M918T) above, with G782R, T890M counted along it
# [4] = target: RET kinase V804M (Homo sapiens, UniProt P07949, V804M); experiment: RET Enzyme Assay (HTRF KinEASE-TK), V804M
# RET kinase V804M, sequence (P07949 29-1114 V804M): as the sequence (P07949 29-1114 M918T) above, with V776M, T890M counted along it
# [5] = target: RET kinase Wild Type (Homo sapiens, UniProt P07949); experiment: RET Enzyme Assay (HTRF KinEASE-TK), Wild Type
# RET kinase Wild Type, sequence (P07949 29-1114): as the sequence (P07949 29-1114 M918T) above, with T890M counted along it
# RET kinase G810S, sequence (P07949 29-1114 G810S): as the sequence (P07949 29-1114 M918T) above, with G782S, T890M counted along it
Compound,IC50 [1] [nM],IC50 [2] [nM],IC50 [3] [nM],IC50 [4] [nM],IC50 [5] [nM]
"CC(C)n1nc(-c2noc(C3CC3)c2-c2cnn(C)c2)c2c(N)ncnc21 [Example 3, 3-(5-cyclopropyl-4-(1-methyl-1H-pyrazol-4-yl)isoxazol-3-yl)-1-isopropyl-1H-pyrazolo[3,4-d]pyrimidin-4-amine]",46.6,12.2,12.5,52.5,7.1
"C=Cc1cc(-c2nn(C(C)C)c3ncnc(N)c23)[nH]n1 [Example 30, 1-isopropyl-3-(3-vinyl-1H-pyrazol-5-yl)-1H-pyrazolo[3,4-d]pyrimidin-4-amine hydrochloride]",–,–,–,–,65.9
"Cc1cnn(C2CCCCO2)c1-c1nn(C(C)C)c2ncnc(N)c12 (stereo not shown) [Example 28, 1-isopropyl-3-(4-methyl-1-(tetrahydro-2H-pyran-2-yl)-1H-pyrazol-5-yl)-1H-pyrazolo[3,4-d]pyrimidin-4-amine]",–,–,–,276,379
"CC(C)n1nc(-n2cc(C3CC3)cn2)c2c(N)ncnc21 [Example 34, 3-(4-cyclopropyl-1H-pyrazol-1-yl)-1-isopropyl-1H-pyrazolo[3,4-d]pyrimidin-4-amine]",–,–,–,–,37.3
"CC(C)n1nc(-c2cnn(C3CC3)c2)c2c(N)ncnc21 [Example 29, 3-(1-cyclopropyl-1H-pyrazol-4-yl)-1-isopropyl-1H-pyrazolo[3,4-d]pyrimidin-4-amine]",–,–,–,–,61.7
"CC(C)n1nc(-c2cc(C(F)(F)F)nn2C2CCCCO2)c2c(N)ncnc21 (stereo not shown) [Example 25, 1-isopropyl-3-(1-(tetrahydro-2H-pyran-2-yl)-3-(trifluoromethyl)-1H-pyrazol-5-yl)-1H-pyrazolo[3,4-d]pyrimidin-4-amine]",79.8,16.3,48.6,–,8.4
"CC(C)n1nc(-c2cc(C3CC3)nn2C2CCCCC2)c2c(N)ncnc21 [Example 26, 3-(1-cyclohexyl-3-cyclopropyl-1H-pyrazol-5-yl)-1-isopropyl-1H-pyrazolo[3,4-d]pyrimidin-4-amine]",87.4,14.2,31.3,–,8
"CC(C)n1nc(-c2cc(C(F)(F)F)[nH]n2)c2c(N)ncnc21 [Example 31, 1-isopropyl-3-(5-(trifluoromethyl)-1H-pyrazol-3-yl)-1H-pyrazolo[3,4-d]pyrimidin-4-amine dihydrochloride]",–,–,–,–,156
"CC(C)c1cc(-c2nn(C(C)C)c3ncnc(N)c23)n(C2CCCCO2)n1 (stereo not shown) [Example 20, 1-isopropyl-3-(3-isopropyl-1-(tetrahydro-2H-pyran-2-yl)-1H-pyrazol-5-yl)-1H-pyrazolo[3,4-d]pyrimidin-4-amine]",226,46.5,70.5,–,21.1
"CC(C)n1nc(C2CC2)cc1-c1nn(C(C)C)c2ncnc(N)c12 [Example 27, 3-(3-cyclopropyl-1-isopropyl-1H-pyrazol-5-yl)-1-isopropyl-1H-pyrazolo[3,4-d]pyrimidin-4-amine]",406,22.3,42.9,–,11.6
"CC(C)n1nc(-c2c[nH]nn2)c2c(N)ncnc21 [Example 35, 1-isopropyl-3-(1H-1,2,3-triazol-4-yl)-1H-pyrazolo[3,4-d]pyrimidin-4-amine]",–,–,–,–,7.2
"CC(C)n1nc(-c2nccn2C)c2c(N)ncnc21 [Example 33, 1-isopropyl-3-(1-methyl-1H-imidazol-2-yl)-1H-pyrazolo[3,4-d]pyrimidin-4-amine]",–,–,–,–,65.9
"CC(C)n1nc(-c2cc(-c3ccccc3)nn2C2CCCCO2)c2c(N)ncnc21 (stereo not shown) [Example 24, 1-isopropyl-3-(3-phenyl-1-(tetrahydro-2H-pyran-2-yl)-1H-pyrazol-5-yl)-1H-pyrazolo[3,4-d]pyrimidin-4-amine]",54.3,9.8,55,–,8.7
"CC(=O)n1nc(-c2nn(C(C)C)c3ncnc(N)c23)cc1C [Example 32, 1-(3-(4-amino-1-isopropyl-1H-pyrazolo[3,4-d]pyrimidin-3-yl)-5-methyl-1H-pyrazol-1-yl)ethan-1-one]",–,–,–,–,44.7
